Entries after “also recorded” stand apart in the source; their conditions may differ.
What was measured:
[1] = system: HTT transcript; test: In vitro evaluation in SH-SY5Y cells: HTT transcript by quantitative PCR; type: cell-based, human; settings: 24 hours
Experimental: Cultured human neuroblastoma (SH-SY5Y cell line) cells were treated at doses ranging from 5 nM-125 nM for 24 hours (for transcript evaluation) or 48 hours (for protein evaluation). RNA was quantified by Nanodrop 2000 (Thermo Scientific). cDNAs were synthesized from 140-400 ng RNA using Maxima First strand cDNA synthesis kit using a mix of oligo dT and random hexamers (Thermo Scientific) in 20 uL reaction at 25° C. for 10 min, 50° C. for 15 min then 85° C. for 5 min. Quantitative PCR was performed using Taqman Fast Advanced master mix (Thermo Scientific) in 20 uL with 4 uL of cDNA reaction and primers specific for each genes. The PCR steps were as follows: 95° C. for 20 sec then 40 cycles of 95° C. for 1 sec, 55° C. for 20 sec. The sequence of primers were, for WT human HTT, forward, 5′-[…]-3′ (SEQ ID NO: 1); reverse, 5′-[…]-3′ (SEQ ID NO: 2) and sequence of probe was 56-FAM/TTG TGA AAT/ZEN/TCG TGG TGG CAA CCC/3IABKFQ/(SEQ ID NO: 8), for HTT novel exon, forward, 5′-[…]-3′ (SEQ ID NO: 3); reverse, 5′-[…]-3′ (SEQ ID NO: 4) and sequence of probe/56-FAM/AAT TCG TGG/ZEN/TGG CAA CCC TTG AGA/3IABKFQ/(SEQ ID NO: 7). Relative quantification of gene expression was performed using 2-AACT method. Fold changes in the mRNA expression level was calculated following normalization to […] glucuronidase beta (Gusb) as an endogenous reference (FIGS. 2a and 2b).

[2] = Adult ACAT/PBPK model; parameters: species or system human; settings: pediatric value entered
Experimental: To scale up the branaplam pediatric ACAT/PBPK model to an adult ACAT/PBPK model, adult CL projected from nonclinical species was applied to replace the pediatric CL, and the body weight of 70 kg was used. Dose volume was set 250 mL. The distribution parameters estimated for the pediatric patients were entered to the adult PK model. […] Model predictions of branaplam exposures after single oral administration of branaplam to adults are depicted in Table 5.

[3] = system: HTT transcript; test: Single oral dose in BacHD mice: HTT transcripts in brain and blood (qPCR); type: in vivo
Experimental: Twenty-eight BacHD mice (FVB/N-Tg(HTT*97Q)|Xwy/J transgenic mice—Jackson Laboratories) were used for the experiment. Animal protocols were approved by the Children's Hospital of Philadelphia Institutional Animal Care and use Committee. Mice were housed in a temperature-controlled environment on a 12-h light/dark cycle. Food and water were provided ad libitum.
A single dose of branaplam or vehicle solution was administered by oral gavage. Mice were divided in seven groups (n=4 mice/group) and treated with branaplam (10 mg/kg—2 groups) and 50 mg/kg—3 groups), or vehicle (2 groups) as control. Mice were firmly restrained by grasping the loose skin to immobilize the head, maintained in a vertical position and a 22- to 26-gauge gavage needle was placed in the side of the mouth. The needle was guided following the roof of the mouth into the esophagus and allowed to gently enter in the stomach. The amount of branaplam or vehicle administrated to each mouse was based on the weight recorded before treatment.
At 8 h, 24 h (vehicle and branaplam 10 mg/kg & 50 mg/kg), and 48 h (branaplam 50 mg/kg) after oral gavage, blood and tissue samples were obtained for PK and PD analysis. Mice were anesthetized with isoflurane and blood was obtained via submandibular vein bleeds and collected for RNA extraction (PD analysis) using RNAprotect Animal Blood Tubes, and plasma (PK analysis) using K2EDTA coated tubes. Cells were removed from plasma by centrifugation for 10 min at 2000×g at 4° C., and plasma samples were stored at −80° C. Following blood collection, mice were anesthetized with a lethal dose of ketamine/xylazine ([…] of a 10 mg:1 mg), and perfused with 18 ml of 0.9% cold saline mixed with 2 ml of RNAlater (Ambion) solution for tissue collection. Liver, skeletal muscle, cerebrum, and cerebellum samples were flash frozen in liquid nitrogen and stored at −80° C.
In experiments, as herein described, the branaplam dose is provided as a solution of branaplam monohydrochloride salt (10 mg/mL suspension) in methyl cellulose, medium viscosity 400 cP for a 1% solution), Tween 80 (1% v/v), purified water suspension formulation.
Total RNA from cerebrum and cerebellum was extracted using RNeasy Plus kit (Qiagen) after homogenized in Precellys at 6000 rpm for 40 sec. RNA from blood was extracted using PAXgene blood RNA kit (Qiagen) according to manufacturer protocol. The RNA was quantified by Nanodrop 2000 (Thermo Scientific). cDNAs were synthesized from 140-400 ng RNA using Maxima First strand cDNA synthesis kit using a mix of oligo dT and random hexamers (Thermo Scientific) in 20 uL reaction at 25° C. for 10 min, 50° C. for 15 min then 85° C. for 5 min. Quantitative PCR was performed using Taqman Fast Advanced master mix (Thermo Scientific) in 20 uL with 4 uL of cDNA reaction and primers specific for each genes. The PCR steps were as follows: 95° C. for 20 sec then 40 cycles of 95° C. for 1 sec, 55° C. for 20 sec. […] Relative quantification of gene expression was performed using 2^−ΔΔCT method. Fold changes in the mRNA expression level was calculated following normalization to mouse glucuronidase beta (Gusb) as an endogenous reference.

[4] = single oral dose 10 or 50 mg/kg, listed as branaplam

Compound: CC1(C)CC(Oc2ccc(-c3ccc(-c4cn[nH]c4)cc3O)nn2)CC(C)(C)N1 [Compound 18, 5-(1H-pyrazol-4-yl)-2-(6-((2,2,6,6-tetramethylpiperidin-4-yl)oxy)pyridazin-3-yl)phenol]
- increase in novel-exon-containing HTT transcript ([1]; 5 nM-125 nM): 100-500 fold
- lowering of total Huntingtin transcript ([1]; 5 nM-125 nM): 30-90 % of normal endogenous levels
- EC50 ([1]; Homo sapiens, read-out: EC50 for lowering of HTT transcript): 20 to 25 nM
- Vc [2]: 3.62 (Optimized value using GastroPlus ™ based on the 1/h
- k12 [2]: 1.41 (Optimized value using GastroPlus ™ based on the 1/h
- k21 [2]: 0.144 (Optimized value using GastroPlus ™ based on the 1/h
- novel-exon-containing HTT transcript levels in brain ([3]; single oral dose 50 mg/kg, 48 h after dosing): trend towards return to vehicle levels
- novel-exon-containing HTT transcript levels in brain ([3]; single oral dose 10 or 50 mg/kg, 8 and 24 h after dosing, listed as branaplam): elevates; also recorded: dose dependent increase
- total HTT transcript levels in brain ([3]; single oral dose 10 or 50 mg/kg, 8 h and 24 h, listed as branaplam): lowers; also recorded: lowering trend at 8 h; also recorded: greater degree of lowering at the 50 mg/kg level, 24 hours post-dosing
- novel-exon-containing HTT transcript levels in blood [3, 4]: elevates; also recorded: robust modulation
- total HTT transcript levels in blood [3, 4]: lowers; also recorded: lowering
